Measurements: patent publication US20200046737A1, “METHODS FOR TREATING CANCER, AND COMPOSITIONS THEREFOR” (Notable Labs, Inc., priority 2018, published 2020)

Experiments:
PD-L1 = assay: Ex vivo flow cytometry priming-tuning assay, PD-L1 expression on AML patient samples; assay type: cell-based, human; conditions: FIG. 3, three-day incubation
CD15 = assay: Ex vivo flow cytometry priming assay, CD15 surface marker expression on AML patient samples; assay type: cell-based, human; conditions: FIG. 3, three-day incubation
CD38 [1] = assay: 72-hour ex vivo assay, CD38 upregulation in MDS and AML cancer patient samples; assay type: cell-based, human; conditions: subset of MDS and AML cancer patient samples
Source text: (§1) The ex vivo detection of CD38 upregulation using the 72-hour ex vivo assay was clinically validated by trial sites, which compared CD38 expression on leukemic blasts before enrollment and at the beginning of cycle two on SY-1425.

CD38 [2] = assay: Clinical validation by trial sites, CD38 expression on leukemic blasts of patients on drug; assay type: in vivo, human; conditions: before enrollment versus beginning of cycle two
Source text: as §1

CD126 = assay: Ex vivo flow cytometry priming assay, CD126 surface marker expression on AML patient samples; assay type: cell-based, human; conditions: AML Patient 3
Description: (§2) 12 primary AML patient samples were assayed for priming response using a High-Throughput Phenotypic Screening Platform. Samples were treated with 70 priming compounds (either FDA approved compounds or compounds in clinical development). […] This process was repeated on bone marrow aspirate and peripheral blood from 3 healthy donors.

CD24 = assay: Ex vivo flow cytometry priming assay, CD24 surface marker expression on AML patient samples; assay type: cell-based, human; conditions: AML Patient 3
Description: as §2

Cc1c(-c2ccc(-c3ccccc3F)cc2)nc2ccc(F)cc2c1C(=O)O [Brequinar Sodium]
PD-L1 expression (PD-L1): increase | CD15 expression (CD15): increase

CC1(C)CCC(C)(C)c2cc(NC(=O)c3ccc(C(=O)O)cc3)ccc21 [SY-1425]
CD38 upregulation after exposure (CD38 [1]): upregulation | CD38 expression on leukemic blasts (CD38 [2]): upregulated

CC1=C(/C=C/C(C)=C/C=C/C(C)=C/C(=O)O)C(C)(C)CCC1 [Tretinoin]
expression of CD126 (CD126): little effect | expression of CD24 (CD24): little effect
